Details: Liquid, Vibrating tube method

CCCC(=O)OCC(COC(=O)CCC)(COC(=O)CCC)COC(=O)CCC [pentaerythritol tetrabutyrate]
Details | mass density [kg/m3]
343.14 K, 27001 kPa | 1027.8
343.14 K, 27378 kPa | 1028.1
343.14 K, 27722 kPa | 1028.3
343.14 K, 28167 kPa | 1028.7
343.14 K, 28200 kPa | 1028.7
343.14 K, 28241 kPa | 1028.7
343.14 K, 29595 kPa | 1029.4
343.14 K, 29634 kPa | 1029.5
343.14 K, 29666 kPa | 1029.7
343.14 K, 29705 kPa | 1029.5
343.14 K, 30226 kPa | 1030
343.14 K, 30268 kPa | 1029.9
343.14 K, 30303 kPa | 1029.9
343.14 K, 30331 kPa | 1030
343.14 K, 30366 kPa | 1030.1
343.14 K, 30394 kPa | 1030.1
343.14 K, 30429 kPa | 1029.9
343.14 K, 30464 kPa | 1030.1
343.14 K, 30785 kPa | 1030.4
343.14 K, 30814 kPa | 1030.4
343.14 K, 30849 kPa | 1030.4
343.14 K, 30886 kPa | 1030.3
343.14 K, 30916 kPa | 1030.4
343.14 K, 32186 kPa | 1031.3
343.14 K, 32224 kPa | 1031.2
343.14 K, 32886 kPa | 1031.6
343.14 K, 32998 kPa | 1031.7
343.14 K, 33543 kPa | 1032
343.14 K, 33577 kPa | 1032.2
343.14 K, 33620 kPa | 1032.2
343.14 K, 33664 kPa | 1032.2
343.14 K, 33699 kPa | 1032.2
343.14 K, 33741 kPa | 1032.2
343.14 K, 33784 kPa | 1032.2
343.14 K, 33820 kPa | 1032.2
343.14 K, 33863 kPa | 1032.3
343.14 K, 33907 kPa | 1032.4
343.15 K, 454.1 kPa | 1008.4
343.15 K, 473 kPa | 1008.4
343.15 K, 494.2 kPa | 1008.5
343.15 K, 517.1 kPa | 1008.3
343.15 K, 5946.5 kPa | 1012.7
343.15 K, 6013.6 kPa | 1012.8
343.15 K, 6051.1 kPa | 1012.8
343.15 K, 6081.9 kPa | 1012.8
343.15 K, 7040 kPa | 1013.6
343.15 K, 7078.5 kPa | 1013.6
343.15 K, 7108.1 kPa | 1013.7
343.15 K, 7140.9 kPa | 1013.7
343.15 K, 8048.2 kPa | 1014.3
343.15 K, 8412.3 kPa | 1014.7
343.15 K, 8447.3 kPa | 1014.8
343.15 K, 8482.2 kPa | 1014.7
343.15 K, 8511.5 kPa | 1014.7
343.15 K, 8547 kPa | 1014.6
343.15 K, 8583.2 kPa | 1014.8
343.15 K, 8618.9 kPa | 1014.8
343.15 K, 8655.1 kPa | 1014.9
343.15 K, 8686 kPa | 1014.8
343.15 K, 8982.4 kPa | 1015
343.15 K, 9021.7 kPa | 1015.1
343.15 K, 9062.3 kPa | 1015.2
343.15 K, 9096.7 kPa | 1015.2
343.15 K, 9137.8 kPa | 1015.1
343.15 K, 9179.2 kPa | 1015.3
343.15 K, 9602.2 kPa | 1015.6
343.15 K, 9638.9 kPa | 1015.4
343.15 K, 9676.1 kPa | 1015.7
343.15 K, 9713.7 kPa | 1015.6
343.15 K, 9822.7 kPa | 1015.8
343.15 K, 9861.5 kPa | 1015.8
343.15 K, 9900.4 kPa | 1015.9
343.15 K, 9939.7 kPa | 1015.8
343.15 K, 9973.1 kPa | 1015.9
343.15 K, 10013 kPa | 1016
343.15 K, 10053 kPa | 1015.8
343.15 K, 10095 kPa | 1015.9
343.15 K, 10129 kPa | 1015.9
343.15 K, 10171 kPa | 1016
343.15 K, 10545 kPa | 1016.2
343.15 K, 10590 kPa | 1016.2
343.15 K, 10635 kPa | 1016.3
343.15 K, 10674 kPa | 1016.5
343.15 K, 10720 kPa | 1016.3
343.15 K, 10767 kPa | 1016.4
343.15 K, 10943 kPa | 1016.5
343.15 K, 10980 kPa | 1016.7
343.15 K, 11011 kPa | 1016.6
343.15 K, 11049 kPa | 1016.6
343.15 K, 11087 kPa | 1016.7
343.15 K, 11125 kPa | 1016.7
343.15 K, 11163 kPa | 1016.7
343.15 K, 11196 kPa | 1016.8
343.15 K, 11235 kPa | 1016.8
343.15 K, 11314 kPa | 1016.8
343.15 K, 11354 kPa | 1016.8
343.15 K, 11388 kPa | 1017
343.15 K, 11428 kPa | 1016.8
343.15 K, 11468 kPa | 1017
343.15 K, 11510 kPa | 1017
343.15 K, 11544 kPa | 1017
343.15 K, 11586 kPa | 1017
343.15 K, 11628 kPa | 1017.2
343.15 K, 11670 kPa | 1017.1
343.15 K, 11714 kPa | 1017.1
343.15 K, 11749 kPa | 1017.1
343.15 K, 11792 kPa | 1017.1
343.15 K, 11837 kPa | 1017.3
343.15 K, 12365 kPa | 1017.5
343.15 K, 12414 kPa | 1017.6
343.15 K, 12458 kPa | 1017.7
343.15 K, 12498 kPa | 1017.7
343.15 K, 12547 kPa | 1017.7
343.15 K, 12597 kPa | 1017.8
343.15 K, 12647 kPa | 1017.8
343.15 K, 12689 kPa | 1017.9
343.15 K, 12739 kPa | 1017.8
343.15 K, 12791 kPa | 1018
343.15 K, 12843 kPa | 1017.9
343.15 K, 12895 kPa | 1018
343.15 K, 12939 kPa | 1018
343.15 K, 12991 kPa | 1018.1
343.15 K, 13044 kPa | 1018
343.15 K, 13098 kPa | 1018.2
343.15 K, 13151 kPa | 1018.2
343.15 K, 13198 kPa | 1018.2
343.15 K, 13252 kPa | 1018.1
343.15 K, 13307 kPa | 1018.2
343.15 K, 13364 kPa | 1018.2
343.15 K, 13420 kPa | 1018.4
343.15 K, 13468 kPa | 1018.5
343.15 K, 13526 kPa | 1018.4
343.15 K, 13584 kPa | 1018.5
343.15 K, 13644 kPa | 1018.5
343.15 K, 13698 kPa | 1018.7
343.15 K, 13772 kPa | 1018.6
343.15 K, 13822 kPa | 1018.7
343.15 K, 13864 kPa | 1018.6
343.15 K, 13901 kPa | 1018.7
343.15 K, 13931 kPa | 1018.8
343.15 K, 13968 kPa | 1018.7
343.15 K, 14005 kPa | 1018.7
343.15 K, 14043 kPa | 1018.9
343.15 K, 14079 kPa | 1018.8
343.15 K, 14110 kPa | 1018.9
343.15 K, 14147 kPa | 1018.9
